Test results: patent publication US20070099877A1, “N-aryl-thienopyrimidin-4-amines and analogs as activators of caspases and inducers of apoptosis and the use thereof” (Cytovia, Inc., priority 2005, published 2007)
Read-outs that look alike come from different tables or passages of the source.

How the values were obtained:
Assay type in all cases: cell-based
[1] = tested on: human breast cancer cell line MDAMB435; assay: Inhibition of cell proliferation (GI50) in MDAMB435 cells
Description: (§1) Human breast cancer cell lines T-47D, MX-1 and MDAMB435, human colon cancer cell line HT29, and human lung cancer cell line H1299 were grown and harvested as in Example 75. An aliquot of […] of cells (4.4×10^4 cells/mL) was added to a well of a 96-well microtiter plate containing 5 μL of a 10% DMSO in RPMI-1640 media solution containing 10 nM to 100 μM of N-(2,5-dimethoxyphenyl)-2-methylthieno[3,2-d]pyrimidin-4-amine (1 nM to 10 μM final). An aliquot of 45 μL of cells was added to a well of a 96-well microtiter plate containing 5 μL of a 10% DMSO in RPMI-1640 media solution without compound as the control sample for maximal cell proliferation (Lmax). The samples were mixed by agitation and then incubated at 37° C. for 48 h in a 5% CO2-95% humidity incubator. After incubation, the samples were removed from the incubator and 25 μL of CellTiter-Glo™ reagent (Promega) was added. The samples were mixed by agitation and incubated at room temperature for 10-15 min. Plates were then read using a luminescent plate reader (Model SPECTRAfluor Plus, Tecan) to give Ltest values.
(§2) Baseline for GI50 (dose for 50% inhibition of cell proliferation) of initial cell numbers was determined by adding an aliquot of 45 μL of cells or 45 μL of media, respectively, to wells of a 96-well microtiter plate containing 5 μL of a 10% DMSO in RPMI-1640 media solution. The samples were mixed by agitation and then incubated at 37° C. for 0.5 h in a 5% CO2-95% humidity incubator. After incubation, the samples were removed from the incubator and 25 μL of CellTiter-Glo™ reagent (Promega) was added. The samples were mixed by agitation and incubated at 37° C. for 10-15 min at room temperature in a 5% CO2-95% humidity incubator. Fluorescence was read as above, (LStart) defining luminescence for initial cell number used as baseline in GI50 determinations.
(§3) GI50 (dose for 50% inhibition of cell proliferation) is the concentration where [(LTest−Lstart)/(LMax−Lstart)]=0.5.

[2] = tested on: human hepatocellular carcinoma cell line SNU398; assay: Caspase cascade activation in SNU398 cells; settings: Homo sapiens, SNU-398, 48 h, read-out: Caspase activation Potency EC50 SNU398 (48 h)
Description: (§4) Human breast cancer cell line T-47D, human lung cancer cell line H1299, human hepatocellular carcinoma cell line SNU398, human colon carcinoma cell line HCT116 were grown according to media component mixtures designated by American Type Culture Collection+10% FCS (Invitrogen Corporation), in a 5% CO2-95% humidity incubator at 37° C. T-47D and H1299 cells were maintained at a cell density between 50 and 80% confluency at a cell density of 0.1 to 0.6×10^6 cells/mL. Cells were harvested at 600×g and resuspended at 0.65×10^6 cells/mL into appropriate media+10% FCS. An aliquot of 22.5 μL of cells was added to a well of a 384-well microtiter plate containing 2.5 μL of a 10% DMSO in RPMI-1640 media solution containing 0.16 to 100 μM of N-(2,5-dimethoxyphenyl)-2-methylthieno[3,2-d]pyrimidin-4-amine or other test compound (0.016 to 10 μM final). An aliquot of 22.5 μL of cells was added to a well of a 384-well microtiter plate containing 2.5 μL of a 10% DMSO in RPMI-1640 media solution without test compound as the control sample. The samples were mixed by agitation and then incubated at 37° C. for 24 h or 48 h in a 5% CO2-95% humidity incubator. After incubation, the samples were removed from the incubator and 25 μL of a solution containing 14 μM of N-(Ac-DEVD)-N′-ethoxycarbonyl-R110 (SEQ ID NO.:1) fluorogenic substrate (Cytovia, Inc.; WO99/18856), 20% sucrose (Sigma), 20 mM DTT (Sigma), 200 mM NaCl (Sigma), 40 mM Na PIPES buffer pH 7.2 (Sigma), and 500 μg/mL lysolecithin (Calbiochem) was added. The samples were mixed by agitation and incubated at room temperature. Using a fluorescent plate reader (Model SPECTRAfluor Plus, Tecan), an initial reading (T=0) was made approximately 1-2 min after addition of the substrate solution, employing excitation at 485 nm and emission at 530 nm, to determine the background fluorescence of the control sample. After the 3 h incubation, the samples were read for fluorescence as above (T=3 h).
(§5) The Relative Fluorescence Unit values (RFU) were used to calculate the sample readings as follows: RFU(T=3h)−Control RFU(T=O)=Net RFU(T=3h)
(§6) The activity of caspase cascade activation was determined by the ratio of the net RFU value for N-(2,5-dimethoxyphenyl)-2-methylthieno[3,2-d]pyrimidin-4-amine or other test compound to that of control samples. The EC50 (nM) was determined by a sigmoidal dose-response calculation (Prism 3.0, GraphPad Software Inc.).

[3] = tested on: human colon cancer cell line HT29; assay: Inhibition of cell proliferation (GI50) in HT29 cells; settings: HT-29, Table III, 48 h
Description: as §1, §2, §3

[4] = tested on: human lung cancer cell line H1299; assay: Caspase cascade activation in H1299 cells; settings: NCI-H1299, 24 h, read-out: Caspase activation Potency EC50 H1299 (24 h)
Description: as §4, §5, §6

[5] = tested on: human lung cancer cell line H1299; assay: Inhibition of cell proliferation (GI50) in H1299 cells; settings: NCI-H1299, Table III, 48 h
Description: as §1, §2, §3

[6] = tested on: human breast cancer cell line T-47D; assay: Inhibition of cell proliferation (GI50, CellTiter-Glo) in T-47D cells; settings: T47D cells
Description: as §1, §2, §3

[7] = tested on: human colon carcinoma cell line HCT116; assay: Caspase cascade activation in HCT116 cells; settings: Homo sapiens, HCT-116, 48 h, read-out: Caspase activation Potency EC50 HCT116 (48 h)
Description: as §4, §5, §6

[8] = tested on: human breast cancer cell line T-47D; assay: Caspase cascade activation (DEVD-R110 fluorogenic substrate) in T-47D cells; settings: Homo sapiens, T47D
Description: as §4, §5, §6

[9] = tested on: human breast cancer cell line MX-1; assay: Inhibition of cell proliferation (GI50) in MX-1 cells; settings: MX1 cells
Description: as §1, §2, §3

[10] = tested on: human colon carcinoma cell line HCT116; assay: Inhibition of cell proliferation (GI50) in HCT116 cells; settings: HCT-116, Table IV, read-out: GI50 in Multi-Cancer Cells HCT116
Description: as §1, §2, §3
(§7) Several compounds were tested in multi cancer cell lines, including human breast cancer cell lines T-47D, MX-1, SKBR3 and MDAMB435, human hepatocellular carcinoma cell line SNU398, human colon carcinoma cell line HCT116, human sarcoma cell line MES-SA and multi-drug resistant (MDR) human sarcoma cell line MES-SA/ADR, murine leukemia cell line P388 and multi-drug resistant (MDR) murine leukemia cell line P388ADR, and the data are summarized in Table IV.

[11] = tested on: multi-drug resistant (MDR) human sarcoma cell line MES-SA/ADR; assay: Inhibition of cell proliferation (GI50) in MES-SA/ADR cells; settings: Table IV, read-out: GI50 in Multi-Cancer Cells MES-SA/ADR
Description: as §1, §2, §3, §7

[12] = tested on: human hepatocellular carcinoma cell line SNU398; assay: Inhibition of cell proliferation (GI50) in SNU398 cells; settings: SNU-398, Table IV, read-out: GI50 in Multi-Cancer Cells SNU398
Description: as §1, §2, §3, §7

[13] = tested on: murine leukemia cell line P388; assay: Inhibition of cell proliferation (GI50) in P388 cells; settings: Mus musculus, Table IV, read-out: GI50 in Multi-Cancer Cells P388
Description: as §1, §2, §3, §7

[14] = tested on: human sarcoma cell line MES-SA; assay: Inhibition of cell proliferation (GI50) in MES-SA cells; settings: Table IV, read-out: GI50 in Multi-Cancer Cells MES-SA
Description: as §1, §2, §3, §7

[15] = tested on: multi-drug resistant (MDR) murine leukemia cell line P388ADR; assay: Inhibition of cell proliferation (GI50) in P388/ADR cells; settings: Mus musculus, Table IV, read-out: GI50 in Multi-Cancer Cells P388/ADR
Description: as §1, §2, §3, §7

[16] = tested on: human breast cancer cell line SKBR3; assay: Inhibition of cell proliferation (GI50) in SKBR3 cells; settings: SK-BR-3, Table IV, read-out: GI50 in Multi-Cancer Cells SKBR3
Description: as §1, §2, §3, §7

[17] = 24 h, T47D cells, 24 h, read-out: Caspase activation Potency EC50 T47D (24 h)
[18] = 48 h, T-47D cells, 48 h, read-out: Caspase activation Potency EC50 T-47D (48 h)
[19] = MDA-MB-435, Table IV, read-out: GI50 in Multi-Cancer Cells MDAMB435
[20] = Table IV, read-out: GI50 in Multi-Cancer Cells T47D
[21] = Table IV, read-out: GI50 in Multi-Cancer Cells MX1

Structure (SMILES) | GI50 ([1]; MDA-MB-435, Table III, 48 h, read-out: GI50 in Cancer Cells MDAMB435) [nM] | EC50 [2] [nM] | GI50 [3] [nM] | EC50 [4] [nM] | GI50 [5] [nM] | GI50 ([6]; Table III, 48 h, read-out: GI50 in Cancer Cells T47D) [nM] | EC50 [7] [nM] | EC50 [8, 17] [nM] | EC50 [8, 18] [nM] | GI50 ([9]; Table III, 48 h, read-out: GI50 in Cancer Cells MX1) [nM] | GI50 [1, 19] [nM] | GI50 [10] [nM] | GI50 [11] [nM] | GI50 [12] [nM] | GI50 [13] [nM] | GI50 [14] [nM] | GI50 [6, 20] [nM] | GI50 [15] [nM] | GI50 [9, 21] [nM] | GI50 [16] [nM]
COc1ccc(OC)c(Nc2nc(C)nc3ccsc23)c1 [Example 1, N-(2,5-Dimethoxyphenyl)-2-methylthieno[3,2-d]pyrimidin-4-amine] | 295 | 557 | 3550 | 1550 | 1170 | 80 | 2330 | 65 | 40 | 300 |  |  |  |  |  |  |  |  |  | 
COc1ccc(Cl)cc1Nc1ncnc2ccsc12 [Example 39, N-(5-Chloro-2-methoxyphenyl)thieno[3,2-d]pyrimidin-4-amine] |  | > 10000 |  | > 10000 |  |  | > 10000 | > 10000 | 6900 |  |  |  |  |  |  |  |  |  |  | 
COc1ccc(C(C)(C)C)cc1Nc1ncnc2ccsc12 [Example 40, N-(5-tert-Butyl-2-methoxyphenyl)thieno[3,2-d]pyrimidin-4-amine] |  | 4850 |  | 5490 |  |  | > 10000 | 5240 | 2140 |  |  |  |  |  |  |  |  |  |  | 
COc1ccc(C(=O)O)cc1Nc1ncnc2ccsc12 [Example 41, 4-Methoxy-3-(thieno[3,2-d]pyrimidin-4-ylamino)-benzoic acid] |  | > 10000 |  | > 10000 |  |  | > 10000 | > 10000 | > 10000 |  |  |  |  |  |  |  |  |  |  | 
COc1ccc(O)c(Nc2ncnc3ccsc23)c1 [Example 42, N-(2-Hydroxy-5-methoxyphenyl)thieno[3,2-d]pyrimidin-4-amine] |  | > 10000 |  | > 10000 |  |  | > 10000 | > 10000 | > 10000 |  |  |  |  |  |  |  |  |  |  | 
Oc1cc(O)cc(Nc2ncnc3ccsc23)c1 [Example 43, N-(3,5-Dihydroxyphenyl)thieno[3,2-d]pyrimidin-4-amine] |  | > 10000 |  | > 10000 |  |  | > 10000 | > 10000 | > 10000 |  |  |  |  |  |  |  |  |  |  | 
COc1cc(Nc2nc(C)nc3ccsc23)cc(OC)c1 [Example 54, N-(3,5-Dimethoxyphenyl)-2-methylthieno[3,2-d]pyrimidin-4-amine] |  | 256 |  |  |  |  | 61 | 27 | 30 |  | 121 | 6580 | 2000 | 1070 | 1050 | 788 | 40 | 1100 | 100 | 
COc1cc(Nc2ncnc3ccsc23)cc(-n2cnnn2)c1 [Example 61, N-(3-Methoxy-5-(1H-tetrazol-1-yl)phenyl)thieno[3,2-d]pyrimidin-4-amine] |  | 138 |  |  |  |  | 291 | 355 | 287 |  | 61 | 400 | 767 | 299 | 280 | 836 | 398 | 199 | 791 | 600
COc1cccc(OC)c1Nc1ncnc2ccsc12 [Example 62, N-(2,6-Dimethoxyphenyl)thieno[3,2-d]pyrimidin-4-amine] |  | > 10000 |  | > 10000 |  |  | > 10000 | > 10000 | > 10000 |  |  |  |  |  |  |  |  |  |  | 
COc1cc(Nc2ncnc3ccsc23)cc(N(C)C)c1 [Example 69, N-(3-Dimethylamino-5-methoxyphenyl)thieno[3,2-d]pyrimidin-4-amine] |  | 251 |  |  |  |  | 323 |  | 191 |  | 41 | 300 | 520 | 276 | 381 | 600 | 133 | 249 | 9850 | 100
COc1cc(N=[N+]=[N-])cc(Nc2ncnc3ccsc23)c1 [Example 71, N-(3-Azido-5-methoxyphenyl)thieno[3,2-d]pyrimidin-4-amine] |  | 262 |  |  |  |  | 144 |  | 209 |  | 92 | 300 | 796 | 305 | 218 | 385 | 208 | 157 | 1670 | 200
COc1ccc(N)cc1Nc1ncnc2ccsc12 [Example 72, N-(5-Amino-2-methoxyphenyl)thieno[3,2-d]pyrimidin-4-amine] |  | > 10000 |  | > 10000 |  |  | > 10000 | > 10000 | > 10000 |  |  |  |  |  |  |  |  |  |  | 
